Laboratory results from US20240390286A1, “PREPARATION OF PHARMACEUTICAL COMPOSITIONS USING SUPERCYCLE VAPOR PHASE DEPOSITION OF METAL OXIDES” (Applied Materials, Inc., priority 2023, published 2024).

Assays:
Format in all cases: physicochemical
[1] = Particle size distribution by laser diffraction before and after coating
Excerpt: As shown in the table below, there is no significant change in particle size distribution after the coating process.

[2] = Indomethacin dissolution, pH 7.2 sodium phosphate buffer, USP2 apparatus (paddle); details: 37° C., 100 rpm
Protocol: In some embodiments, the dissolution or drug release of the coated particles can be assessed by an in vitro release over time (dissolution) analysis. In some embodiments, the dissolution or drug release of the coated particles can be assessed by HPLC analysis. In some embodiments, the dissolution is assessed in methanol. In some embodiments, the dissolution is assessed in a sodium phosphate buffer solution (PBS) (e.g., pH 7.2, with or without surfactant) at 37° C., with a stirring of 100 revolutions per minute (RPM), for more than 1 minute, more than 2 minutes, more than 5 minutes, more than 10 minutes, more than 20 minutes, more than 30 minutes, more than 40 minutes, more than 50 minutes, more than 60 minutes, more than 120 minutes, more than 3 hours, more than 4 hours, more than 5 hours, more than 6 hours, more than 7 hours, more than 8 hours, more than 12 hours, more than 16 hours, more than 24 hours. In some embodiments, the coated particles have a reduced dissolution rate compared to uncoated drug particles. […]

[3] = Indomethacin dissolution, pH 7.2 PIPES buffer, USP4 apparatus (flow through); details: 37° C., 16 ml/min
Protocol: FIG. 8 depicts the results of a study of indomethacin dissolution in pH 7.2 PIPES buffer solution in a USP4 dissolution apparatus (flow through) at 37° C. at a 16 ml/min flow rate. […] Again, the indomethacin release rates for AZO coated particles were in between that of ZnOx coated particles and that of AlOx coated particles. The release rate of AZO coated particles decreases as the Al/Zn ratio increases.

Q: Which D10 ([1]; laser diffraction) does the source give for `COc1ccc2c(c1)c(CC(=O)O)c(C)n2C(=O)c1ccc(Cl)cc1` [UC-m-IMC, indomethacin] here?
A: 4.4 ± 0.4 μm

Q: What about the D50 ([1]; laser diffraction) of the same compound?
A: 13.3 ± 0.1 μm

Q: What about the D90 ([1]; laser diffraction) of the same compound?
A: 24.5 ± 0.5 μm

Q: And the Span ([1]; laser diffraction size distribution)?
A: 1.5

Q: What about the indomethacin release profile [2] of the same compound?
A: immediate indomethacin release profile

Q: And the indomethacin release profile [3]?
A: immediate indomethacin release
